Results on 4 compounds are retold here after US5565433A, “Sulfated β-glycolipid derivatives as cell adhesion inhibitors” (Bristol-Myers Squibb Company, priority 1996, dated 1996).

Usually IC50 stands for the concentration that gives 50% inhibition.

Test [1] deals with Reverse Passive Arthus Reaction in Rats. Put plainly: Reverse Passive Arthus Reaction in Rats, myeloperoxidase (MPO). The test is classed as in vivo. To be noted: rat, IV, % inhibition at 3 mg single dose, 4 hours. An excerpt:
(§1) 3. Reverse Passive Arthus Reaction in Rats
(§2) The reverse passive Arthus reaction in rats is a modification of the method by Mulligan et al., as described in J. Clin. Invest., (1991 ) 88:1396-1406. This is an experimental model in which the interaction of antigen-antibody complexes and complement leads to a severe vasculitis that is associated with edema, induration, erythema and hemorrhage. The interaction between the antigen-antibody complexes and complement leads to a localized influx of neutrophils. These neutrophils release a variety of mediators that are associated with tissue damage and vascular permeability. The localized inflammatory reaction is measured using different techniques i.e., vascular permeability and neutrophil influx which is evaluated both biochemically and microscopically.
(§3) Male Sprague Dawley specific pathogen-free rats with jugular vein cannulae (280-320 g, Hill Top Labs, Pa.) are used in these studies. Animals are acclimated for at least 1 day and individually housed in stainless steel cages. The dorsal region of the rats is closely clipped 2 days prior to the experiments and divided into 4 sites on each side of the midline. Prior to all injections the rats are sedated with 0.4 ml per 300 gm rat of ketamine/rompun [1000 mg (10 ml) of ketamine HCL is mixed with 40 mg (2.0 ml) Rompun] administered IP and or inhalation anesthesia with metafane (methoxyflurane).
(§4) Bovin Serum Albumin (BSA) and rabbit polyclonal IgG rich in anti-BSA are purchased from Sigma Chemical Co. (St. Louis, Mo.). Radiolabelled ^125 I-BSA (spAct 1-5 μCi/μg) is purchased from Dupont NEN (Boston, Mass.).
(§5) Each rat is administered intradermal (ID) injection of (0.4 mg, 0.6 mg and 0.8 mg) anti-BSA in a volume of 100 μl per injection in normal saline. The ID injections are randomized near the mid dorsal region on both sides of the back bone. Immediately after the ID injections of the anti-BSA, the rats are administered intravenous (IV) injections of BSA (10 mg in 1.0 ml) in normal saline containing ^125 I labeled BSA (1 μCi/ml BSA or 5.0 μCi/kg body wt) for quantification of dermal vascular injury. Anti-inflammatory agents such as inhibitors of adhesion molecules of the present invention are administered IV at a single dose of 3 mg immediately after BSA. Four (4) hours after the IV injection of BSA, the rats are anesthetized with metafane and 2 to 3 ml of blood is withdrawn via the cannula into an anticoagulant containing (EDTA or Heparin) tube and plasma separated and saved for neutrophil and albumin quantitation. The rats are killed and the skin surrounding the injection site (15 mm diameter) is punched out and weighed. The skin samples and a fixed volume of plasma (0.1 to 1.0 ml) is analyzed in a gamma-counter for ^125 I content. Skin samples from the contralateral side are processed and analyzed for myeloperoxidase activity (MPO) as a measure of neutrophil accumulation. As needed, samples are also processed for histological evaluation of the reacted sites.
MPO is located in the azurephil granules of polymorphonuclear leukocytes (PMN). Because of its abundance in these cells (5% dry weight), this enzyme is used as a marker for tissue neutrophil content. For tissue MPO content, the method of Bradley, et al., was used as described in J. Invest. […] Change in absorbance at 450 nm was measured at room temperature using a Vmax kinetic plate reader (Molecular Devices, Pale Alto, Calif., USA). Percent inhibition of the test compound at 3 mg dose was determined as follows: [formula] […]

For test [2] the test system is unchanged. Put plainly: Reverse Passive Arthus Reaction in Rats, vascular permeability (VP). The test is classed as in vivo. To be noted: rat, IV, % inhibition at 3 mg single dose, 4 hours.
Source text: as §1, §2, §3, §4, §5
Vascular Permeability (VP)
The calculation of the plasma protein exudation into skin is made by determining the radioactivity in the tissue and relating this to the level of radioactive albumin in the blood at the time of sacrifice. […] [formula]
Percent inhibition of the test compound at 3 mg was determined as follows: [formula] Myeloperoxidase (MPO)

Another test concerns the target T1, P-selectin (Homo sapiens, UniProt P16109).
T1 construct: consists of the human lectin domain, the EGF domain, and two complement repeats of the human selectins; made in house
Put plainly: P-Selectin Adhesion Receptor Binding: cell-free ELISA, inhibition of P-selectin binding to immobilized sulfatides. To be noted: immobilized sulfatide, pH 8.0. The source says: 1. P-Selectin Adhesion Receptor Binding
P-selectin (GMP140, granule membrane protein-140, PADGEM, or CD62) is a calcium-dependent transmembrane protein found in alpha granules of endothelial cells and platelets. It is an inducible selectin produced on activated endothelium and platelets which recognize alpha(2-3)sialylated and alpha(1-3)fucosylated lactosaminoglycans which include the sequence, Lewis x (Zhou et al., J. Cell. Biol., (1991) 115 (2): 557-564) and sulfatides (3-sulfated galactosyl ceramides, Aruffo, et al., Cell (1991) 67: 35-44). P-selectin may be responsible for the initial adhesion events between endothelium and neutrophils as evidenced by leukocyte rolling induced by P-selectin in flow cells (Lawrence, M., and T. Springer, Cell (1991) 65: 859-873).
Based on the availability of soluble forms of P-selectin prepared as described by Aruffo, A., et al., Cell, 67, 35-44 (1991), a binding ELISA based assay modified from Foxall, et al., J., Cell Biol., 117, 895-902 (1992) was developed to measure inhibitors of P-selectin binding to immobilized sulfatides. Such inhibitors were tested in the assay described below.
0.1 ml of sulfatide (SIGMA) or lysosulfatide (SIGMA) each at 1 μg/ml in MeOH were added to the wells of a 96-well ELISA plate (ProBind, Falcon) and allowed to dry overnight at room temperature. The next day the antigen coated plates were blocked for 1.5 hours at room temperature with 5% BSA (ICN) in buffer containing 20mM Hepes and 0.15 M NaCl, pH 8.0. Wild type P-selectin and mutants thereof were first mixed with HRP-conjugated goat anti-human IgG (Fisher Scientific), serially diluted and then incubated for 30 minutes at 37° C. in buffer containing 20 mM Hepes, 0.15 M NaCl, 1% BSA and 0.8 mM CaCl2, pH 8.0 prior to addition to the BSA blocked plates. Following the 30 minute preincubation, the fusion protein-HRP conjugate immunocomplexes were incubated on the blocked antigen coated plates for 45 minutes at 37° C. in the presence or absence of the test compounds and then washed to remove any unbound proteins. Bound complexes were detected by addition of substrate buffer (95 mM NaOAc.3H2 O, 5 mM citric acid monohydrate, 1.4 mM urea/H2O2) containing 3, 3', 5, 5' Tetramethylbenzidine (SIGMA). Reactions were stopped by the addition of 3N sulfuric acid and the absorbance read on an ELISA reader at dual wavelengths 450 and 630 nm. The efficacy of these compounds was compared to that of sulfatide (positive control) or to lysosulfatide (negative control). The data is obtained as percent inhibition of specific binding [formula] and a plot of dose vs. percent inhibition of Rg binding is generated in which IC50 (μM) is calculated and reported as cell free data in Table 1.
For orientation: ELISA stands for enzyme-linked immunosorbent assay.

SMILES strings stand for the structures.

T1 sequence (P16109 with tags, fused parts or gaps limits assumed): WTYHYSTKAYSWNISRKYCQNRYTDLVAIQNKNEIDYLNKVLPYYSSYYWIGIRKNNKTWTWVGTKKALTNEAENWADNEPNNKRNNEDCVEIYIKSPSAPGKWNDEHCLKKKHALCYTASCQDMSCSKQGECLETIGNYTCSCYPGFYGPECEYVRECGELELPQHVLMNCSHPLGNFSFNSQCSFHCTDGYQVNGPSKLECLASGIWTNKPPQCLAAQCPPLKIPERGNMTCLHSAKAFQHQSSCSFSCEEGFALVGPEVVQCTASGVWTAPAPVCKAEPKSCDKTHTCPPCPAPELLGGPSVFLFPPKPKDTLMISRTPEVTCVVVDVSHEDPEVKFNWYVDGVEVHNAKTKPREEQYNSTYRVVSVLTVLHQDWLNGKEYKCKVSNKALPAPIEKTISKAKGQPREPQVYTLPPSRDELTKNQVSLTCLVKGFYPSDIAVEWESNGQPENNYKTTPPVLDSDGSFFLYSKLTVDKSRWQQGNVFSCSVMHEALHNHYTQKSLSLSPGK

As to `CCCCCCCCCCCCC/C=C/[C@@H](OC(=O)c1ccccc1)[C@H](CO[C@@H]1O[C@@H]2COC(c3ccccc3)O[C@@H]2[C@H](OS(=O)(=O)O)[C@H]1OS(=O)(=O)O)NC(=O)CCCCCCCCCCCCCCC` (stereo partly drawn) [Example 10, (2S,3R,4E)-3-Benzoyloxy-2-hexadecanoylamino-1-[2,3-di-O-(sodiumoxysulfonyl)-4,6-O-benzylidene-β-D-galactopyranosyloxy)-4-octadecene], the “RPA MPO % Inhib.” value in test [1] came out at 56%. Besides, the “RPA VP % Inhib.” value in test [2] is recorded as 0%.

In the case of `CCCCCCCCCCCCC/C=C/[C@@H](OC(=O)c1ccccc1)[C@H](CO[C@@H]1O[C@H](COS(=O)(=O)O)[C@@H](OS(=O)(=O)O)[C@H](OC(=O)c2ccccc2)[C@H]1OC(=O)c1ccccc1)NC(=O)CCCCCCCCCCCCCCC` [Example 3, (2S,3R,4E)-2-Hexadecanoylamino-3-benzoyloxy-1-(2,3-di-O-benzoyl-4,6-di-O-(sodiumoxysulfonyl)-β-D-glucopyranosyloxy)-4-octadecene], in test [1], the “RPA MPO % Inhib.” value is 14%. Also, the “RPA VP % Inhib.” value in test [2] worked out at 34%. Besides, the IC50 on P-selectin worked out at 200 nM.

The compound `CCCCCC/C=C/[C@@H](OC(=O)c1ccccc1)[C@H](CO[C@@H]1O[C@H](COS(=O)(=O)O)[C@H](O)[C@H](O)[C@H]1OS(=O)(=O)O)NC(=O)CCCCCCCCCCCCCCC` [Example 25, (2S,3R,4E)-3-Benzoyloxy-2-hexadecanoylamino-1-[2,6-di-O-(sodiumoxysulfonyl)-β-D-galactopyranosyloxy]-4-undecene] displayed an IC50 on P-selectin of 2700 nM. In other words, the single-digit micromolar range.

With `CCCCCCCCCCCCC/C=C/[C@@H](OC(=O)c1ccccc1)[C@H](CO[C@@H]1O[C@H](COS(=O)(=O)O)[C@H](OS(=O)(=O)O)[C@H](OC(=O)c2ccccc2)[C@H]1OC(=O)c1ccccc1)NC(=O)CCCCCCCCCCCCCCC` [Example 1, (2S,3R,4E)-3-Benzoyloxy-2-hexadecanoylamino-1-[2,3-di-O-benzoyl-4,6-di-O-(sodiumoxysulfonyl)-β-D-galactopyranosyloxy]-4-octadecene], the “RPA MPO % Inhib.” value in test [1] was 24%. In addition, the “RPA VP % Inhib.” value in test [2] was 42%. Also, the IC50 on P-selectin amounted to 100 nM.
